How the values were obtained:
Human IL2 promoter = Human IL2 promoter reporter gene assay (RGA) in Jurkat cells; assay type: cell-based; details: Jurkat clone K22 290_H23, anti-CD28 mAb + PMA stimulation 5.5 h
Protocol: Human IL2 Promoter Reporter Gene Assay (RGA) in Jurkat Cells
The transfected Jurkat clone K22 290_H23 was propagated in RPMI 1640 supplemented with 10% heat inactivated fetal calf serum, 50 μM 2-mercaptoethanol and 1 mg/ml Geneticin. The cell concentration should not exceed 1×10e6/ml during culturing. The cells should not exceed passage 30. Prior to the assay the cells were washed and prepared to the concentration of 2×10e6 cells/ml.
Compound dilutions were made as 2×-concentrated solutions then diluted 1/2 by addition to cells. Two hundred and fifty μl of compound dilution and 250 μl of cells were mixed together in wells of a 96-deep well plate. Cells/compounds premix were incubated 30 min at 37° C. and 5% CO2 directly in the deep well plate.
After pre-incubation of cells with compounds, cells were stimulated with anti-CD28 mAb (clone 15E8) at 3 μg/ml+PMA at 1 μg/ml. Both co-stimulants were diluted in culture medium at a 10×-concentrated solution. 10 μl of co-stimulants were pipetted into the white 96-well plates and 100 μl of cell/compound mix was immediately added in duplicates. The cells were stimulated for 5.5 h at 37° C. and 5% CO2.
After cell stimulation, 50 μl of BriteLitePlus reagent (Perkin Elmer) was added to each well and the bioluminescence was measured with a Wallac EnVision reader (Perkin Elmer).

[1] = target: C-domain of MALT1 (amino acids 329-824) (Homo sapiens (Human), UniProt Q9UDY8); assay: MALT1 biochemical assay (fluorescence lifetime enzyme activity assay); details: 60 min pre-incubation, 2.5 nM enzyme, 1 μM peptide substrate
Chain of C-domain of MALT1 (amino acids 329-824) (Q9UDY8 329-824): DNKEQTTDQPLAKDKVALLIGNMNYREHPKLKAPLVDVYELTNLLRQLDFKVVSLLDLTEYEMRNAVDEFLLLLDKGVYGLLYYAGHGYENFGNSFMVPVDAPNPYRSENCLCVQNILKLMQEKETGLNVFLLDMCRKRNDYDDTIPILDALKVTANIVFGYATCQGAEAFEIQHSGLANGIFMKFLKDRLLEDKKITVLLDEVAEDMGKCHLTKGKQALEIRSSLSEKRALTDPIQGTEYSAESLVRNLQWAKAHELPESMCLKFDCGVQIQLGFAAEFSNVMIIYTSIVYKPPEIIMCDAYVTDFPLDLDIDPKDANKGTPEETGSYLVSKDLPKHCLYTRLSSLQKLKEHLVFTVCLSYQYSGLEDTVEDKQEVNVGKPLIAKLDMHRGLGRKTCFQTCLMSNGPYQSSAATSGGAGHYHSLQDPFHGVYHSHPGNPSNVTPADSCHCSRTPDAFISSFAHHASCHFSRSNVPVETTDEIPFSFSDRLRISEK

[2] = target: cIAP2-MALT1 fusion protein (Homo sapiens, UniProt Q9UDY8); assay: cell-based
Chain of cIAP2-MALT1 fusion protein (Q9UDY8 2-824 limits assumed): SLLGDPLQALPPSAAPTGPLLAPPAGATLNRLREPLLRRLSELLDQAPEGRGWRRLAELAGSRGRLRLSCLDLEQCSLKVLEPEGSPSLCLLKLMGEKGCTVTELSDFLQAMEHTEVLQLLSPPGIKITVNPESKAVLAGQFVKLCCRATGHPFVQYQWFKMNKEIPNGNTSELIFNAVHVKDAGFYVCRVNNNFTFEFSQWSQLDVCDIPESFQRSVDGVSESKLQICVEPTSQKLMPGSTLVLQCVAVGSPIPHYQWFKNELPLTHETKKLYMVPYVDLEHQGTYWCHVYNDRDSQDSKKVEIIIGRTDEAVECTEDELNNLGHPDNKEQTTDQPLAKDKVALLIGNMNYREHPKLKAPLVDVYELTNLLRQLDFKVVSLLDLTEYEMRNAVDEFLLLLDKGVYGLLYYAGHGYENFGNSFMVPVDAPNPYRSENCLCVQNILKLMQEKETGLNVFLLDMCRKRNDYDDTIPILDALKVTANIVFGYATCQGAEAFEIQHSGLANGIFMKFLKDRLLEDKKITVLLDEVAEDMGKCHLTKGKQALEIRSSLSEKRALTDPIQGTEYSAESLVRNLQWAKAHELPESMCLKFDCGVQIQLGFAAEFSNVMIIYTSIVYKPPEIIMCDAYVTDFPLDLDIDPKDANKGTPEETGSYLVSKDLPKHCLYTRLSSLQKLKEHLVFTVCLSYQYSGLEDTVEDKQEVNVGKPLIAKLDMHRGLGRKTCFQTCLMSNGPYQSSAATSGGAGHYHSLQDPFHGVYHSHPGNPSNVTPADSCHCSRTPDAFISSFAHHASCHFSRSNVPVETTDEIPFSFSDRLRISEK
Protocol: For the measurement of compound inhibition, 0.25 μl of test compound were mixed with 12.5 μl of enzyme in wells of the 384-well plates, and incubated for 60 minutes at room temperature (22° C.). After that, 12.5 μl of substrate was added, and the enzymatic reaction was allowed to proceed for 60 minutes at room temperature (22° C.). […] The DMSO content was between 0.9 and 1% (v/v). […] The IC50 value was calculated from the plot of percentage inhibition versus inhibitor concentration using non-linear regression analysis software (Origin, OriginLab Corporation, USA). The data were fitted using a 4 Parameter Logistic Model, characterized by the following equation: y=A2+(A1−A2)/(1+(x/IC50)^p) where y is the %-inhibition at the inhibitor concentration, x. A1 is the lowest inhibition value, and A2 the maximum inhibition value.

| Compound | IC50 (Human IL2 promoter) [µM] | IC50 [1] [µM] | IC50 [2] [µM] |
| --- | --- | --- | --- |
| CC(C)c1c(NC(=O)Nc2cc(Cl)c(-n3nccn3)c(Cl)c2)cnc2cc(Cl)nn12 [Example 30, 1-(2-chloro-7-isopropylpyrazolo[1,5-a]pyrimidin-6-yl)-3-(3,5-dichloro-4-(2H-1,2,3-triazol-2-yl)phenyl)urea] | 0.507 | 0.003 | 0.382 |
| CC(C)c1c(NC(=O)Nc2cc(Cl)c(=O)n(C)c2-n2cccn2)cnc2cc(Cl)nn12 [Example 24, 1-(5-chloro-1-methyl-6-oxo-2-(1H-pyrazol-1-yl)-1,6-dihydropyridin-3-yl)-3-(2-chloro-7-isopropylpyrazolo[1,5-a]pyrimidin-6-yl)urea] | 0.214 | 0.005 | 0.131 |
| CC(C)c1c(NC(=O)Nc2cnc(N3CCCS3(=O)=O)c(C(F)(F)F)c2)cnc2cc(Cl)nn12 [Example 27, 1-(2-chloro-7-isopropylpyrazolo[1,5-a]pyrimidin-6-yl)-3-(6-(1,1-dioxidoisothiazolidin-2-yl)-5-(trifluoromethyl)pyridin-3-yl)urea] | 0.248 | 0.006 | 0.054 |
| CC(C)c1c(NC(=O)Nc2cncc(Br)c2)cnc2cc(Cl)nn12 [Example 26, 1-(5-bromopyridin-3-yl)-3-(2-chloro-7-isopropylpyrazolo[1,5-a]pyrimidin-6-yl)urea] | 0.134 | 0.005 | 0.085 |
| CC(C)c1c(NC(=O)Nc2cnc(-n3cc(CN)cn3)c(Cl)c2)cnc2cc(Cl)nn12 [Example 118, 1-(6-(4-(aminomethyl)-1H-pyrazol-1-yl)-5-chloropyridin-3-yl)-3-(2-chloro-7-isopropylpyrazolo[1,5-a]pyrimidin-6-yl)urea] | 0.112 | 0.028 | 0.256 |
| COc1ncc(NC(=O)Nc2cnc3cc(Cl)nn3c2C(C)C)cc1Cl [Example 18, 1-(5-chloro-6-methoxypyridin-3-yl)-3-(2-chloro-7-isopropylpyrazolo[1,5-a]pyrimidin-6-yl)urea] | 0.207 | 0.003 | 0.149 |
| CO[C@@H](C)c1c(NC(=O)Nc2cnc(-n3nccn3)c(Cl)c2)cnc2cc(C)nn12 [Example 71, (S)-1-(5-chloro-6-(2H-1,2,3-triazol-2-yl)pyridin-3-yl)-3-(7-(1-methoxyethyl)-2-methylpyrazolo[1,5-a]pyrimidin-6-yl)urea] | 0.014 | 0.005 | 0.079 |
| COCC1(c2c(NC(=O)Nc3ccnc(C(F)(F)F)c3)cnc3cc(C)nn23)CC1 [Example 79, 1-(7-(1-(methoxymethyl)cyclopropyl)-2-methylpyrazolo[1,5-a]pyrimidin-6-yl)-3-(2-(trifluoromethyl)pyridin-4-yl)urea] | 0.206 | 0.045 | 0.408 |
| COC(=O)c1cc(Cl)cc(NC(=O)Nc2cnc3cc(Cl)nn3c2[C@H](C)OC)c1 [Example 13, (S)-methyl 3-chloro-5-(3-(2-chloro-7-(1-methoxyethyl)pyrazolo[1,5-a]pyrimidin-6-yl)ureido)benzoate] | 0.039 | 0.002 | 0.077 |
| Cc1c(NC(=O)Nc2cnc(-n3nccn3)c(Cl)c2)cnc2cc(Cl)nn12 [Example 62, 1-(5-chloro-6-(2H-1,2,3-triazol-2-yl)pyridin-3-yl)-3-(2-chloro-7-methylpyrazolo[1,5-a]pyrimidin-6-yl)urea] | 0.266 | 0.042 | 0.345 |
| COC[C@H](OC)c1c(NC(=O)Nc2cnc(-n3nccn3)c(Cl)c2)cnc2cc(Cl)nn12 [Example 126, (R)-1-(5-chloro-6-(2H-1,2,3-triazol-2-yl)pyridin-3-yl)-3-(2-chloro-7-(1,2-dimethoxyethyl)pyrazolo[1,5-a]pyrimidin-6-yl)urea] | 0.058 | 0.005 | 0.119 |
| CC(C)c1c(NC(=O)Nc2ccc(-c3ccnc(N)n3)c(Cl)c2)cnc2cc(Cl)nn12 [Example 23, 1-(4-(2-aminopyrimidin-4-yl)-3-chlorophenyl)-3-(2-chloro-7-isopropylpyrazolo[1,5-a]pyrimidin-6-yl)urea] | 0.307 | – | 0.301 |
| COCC1(c2c(NC(=O)Nc3cnc(-n4nccn4)c(Cl)c3)cnc3cc(Cl)nn23)CC1 [Example 76, 1-(5-chloro-6-(2H-1,2,3-triazol-2-yl)pyridin-3-yl)-3-(2-chloro-7-(1-(methoxymethyl)cyclopropyl)pyrazolo[1,5-a]pyrimidin-6-yl)urea] | 0.028 | 0.006 | 0.084 |
| Cc1cc2ncc(NC(=O)Nc3cnc(-n4nccn4)c(Cl)c3)c(C3(C)CC3)n2n1 [Example 72, 1-(5-chloro-6-(2H-1,2,3-triazol-2-yl)pyridin-3-yl)-3-(2-methyl-7-(1-methylcyclopropyl)pyrazolo[1,5-a]pyrimidin-6-yl)urea] | 0.14 | 0.003 | 0.179 |
| COc1ncc(NC(=O)Nc2cnc3cc(C)nn3c2C2(C)CC2)cc1Cl [Example 73, 1-(5-chloro-6-methoxypyridin-3-yl)-3-(2-methyl-7-(1-methylcyclopropyl)pyrazolo[1,5-a]pyrimidin-6-yl)urea] | 0.091 | 0.012 | 0.163 |
| COC(c1c(NC(=O)Nc2ccnc(C(F)(F)F)c2)cnc2cc(Cl)nn12)C1CCOCC1 (stereo not shown) [Example 90, 1-(2-chloro-7-(methoxy(tetrahydro-2H-pyran-4-yl)methyl)pyrazolo[1,5-a]pyrimidin-6-yl)-3-(2-(trifluoromethyl)pyridin-4-yl)urea] | 0.927 | 0.097 | 0.696 |
| COCC1(c2c(NC(=O)Nc3cnc(-n4nccn4)c(Cl)c3)cnc3cc(Cl)nn23)CCCO1 (stereo not shown) [Example 91, 1-(5-chloro-6-(2H-1,2,3-triazol-2-yl)pyridin-3-yl)-3-(2-chloro-7-(2-(methoxymethyl)tetrahydrofuran-2-yl)pyrazolo[1,5-a]pyrimidin-6-yl)urea] | 0.089 | 0.002 | 0.105 |
| COC(C)(C)c1c(NC(=O)Nc2cnc(-n3nccn3)c(Cl)c2)cnc2cc(Cl)nn12 [Example 14, 1-(5-chloro-6-(2H-1,2,3-triazol-2-yl)pyridin-3-yl)-3-(2-chloro-7-(2-methoxypropan-2-yl)pyrazolo[1,5-a]pyrimidin-6-yl)urea] | 0.067 | 0.003 | 0.049 |
| Cc1ncn(-c2ccc(NC(=O)Nc3cnc4cc(Cl)nn4c3C(C)C)cc2C#N)n1 [Example 19, 1-(2-chloro-7-isopropylpyrazolo[1,5-a]pyrimidin-6-yl)-3-(3-cyano-4-(3-methyl-1H-1,2,4-triazol-1-yl)phenyl)urea] | 0.149 | 0.003 | 0.091 |
| COCCO[C@@H](C)c1c(NC(=O)Nc2cnc(-n3nccn3)c(Cl)c2)cnc2cc(Cl)nn12 [Example 39, (S)-1-(5-chloro-6-(2H-1,2,3-triazol-2-yl)pyridin-3-yl)-3-(2-chloro-7-(1-(2-methoxyethoxy)ethyl)pyrazolo[1,5-a]pyrimidin-6-yl)urea] | – | 0.003 | 0.06 |
| COCC1(c2c(NC(=O)Nc3ccnc(C(F)(F)F)c3)cnc3cc(Cl)nn23)CC1 [Example 77, 1-(2-chloro-7-(1-(methoxymethyl)cyclopropyl)pyrazolo[1,5-a]pyrimidin-6-yl)-3-(2-(trifluoromethyl)pyridin-4-yl)urea] | – | 0.006 | 0.241 |
| CC1(c2c(NC(=O)Nc3ccnc(C(F)(F)F)c3)cnc3cc(Cl)nn23)CC1 [Example 17, 1-(2-chloro-7-(1-methylcyclopropyl)pyrazolo[1,5-a]pyrimidin-6-yl)-3-(2-(trifluoromethyl)pyridin-4-yl)urea] | – | 0.011 | 0.117 |
| COC(c1ccccc1)c1c(NC(=O)Nc2cnc(-n3nccn3)c(Cl)c2)cnc2cc(Cl)nn12 (stereo not shown) [Example 49, 1-(5-chloro-6-(2H-1,2,3-triazol-2-yl)pyridin-3-yl)-3-(2-chloro-7-(methoxy(phenyl)methyl)pyrazolo[1,5-a]pyrimidin-6-yl)urea] | – | 0.003 | 0.059 |
| CO[C@H](C)CO[C@@H](C)c1c(NC(=O)Nc2cnc(-n3nccn3)c(Cl)c2)cnc2cc(Cl)nn12 [Example 85, 1-(5-chloro-6-(2H-1,2,3-triazol-2-yl)pyridin-3-yl)-3-(2-chloro-7-((S)-1-((R)-2-methoxypropoxy)ethyl)pyrazolo[1,5-a]pyrimidin-6-yl)urea] | – | 0.005 | 0.19 |
| CO[C@@H](c1c(NC(=O)Nc2cnc(-n3nccn3)c(C(F)(F)F)c2)cnc2cc(Cl)nn12)C(C)C [Example 4, (R)-1-(6-(2H-1,2,3-triazol-2-yl)-5-(trifluoromethyl)pyridin-3-yl)-3-(2-chloro-7-(1-methoxy-2-methylpropyl)pyrazolo[1,5-a]pyrimidin-6-yl)urea] | – | 0.006 | 0.061 |
| CCOc1ncc(NC(=O)Nc2cnc3cc(Cl)nn3c2C(C)C)cc1Cl [Example 25, 1-(5-chloro-6-ethoxypyridin-3-yl)-3-(2-chloro-7-isopropylpyrazolo[1,5-a]pyrimidin-6-yl)urea] | 0.526 | – | 0.306 |

— patent US9815842B2, “Pyrazolo pyrimidine derivatives and their use as MALT1 inhibitors” (Novartis AG, priority 2014, dated 2017)
